The assay addresses T1, Ubiquitin carboxyl-terminal hydrolase 28 (Homo sapiens, UniProt Q96RU2).
T1 sequence (Q96RU2 whole entry): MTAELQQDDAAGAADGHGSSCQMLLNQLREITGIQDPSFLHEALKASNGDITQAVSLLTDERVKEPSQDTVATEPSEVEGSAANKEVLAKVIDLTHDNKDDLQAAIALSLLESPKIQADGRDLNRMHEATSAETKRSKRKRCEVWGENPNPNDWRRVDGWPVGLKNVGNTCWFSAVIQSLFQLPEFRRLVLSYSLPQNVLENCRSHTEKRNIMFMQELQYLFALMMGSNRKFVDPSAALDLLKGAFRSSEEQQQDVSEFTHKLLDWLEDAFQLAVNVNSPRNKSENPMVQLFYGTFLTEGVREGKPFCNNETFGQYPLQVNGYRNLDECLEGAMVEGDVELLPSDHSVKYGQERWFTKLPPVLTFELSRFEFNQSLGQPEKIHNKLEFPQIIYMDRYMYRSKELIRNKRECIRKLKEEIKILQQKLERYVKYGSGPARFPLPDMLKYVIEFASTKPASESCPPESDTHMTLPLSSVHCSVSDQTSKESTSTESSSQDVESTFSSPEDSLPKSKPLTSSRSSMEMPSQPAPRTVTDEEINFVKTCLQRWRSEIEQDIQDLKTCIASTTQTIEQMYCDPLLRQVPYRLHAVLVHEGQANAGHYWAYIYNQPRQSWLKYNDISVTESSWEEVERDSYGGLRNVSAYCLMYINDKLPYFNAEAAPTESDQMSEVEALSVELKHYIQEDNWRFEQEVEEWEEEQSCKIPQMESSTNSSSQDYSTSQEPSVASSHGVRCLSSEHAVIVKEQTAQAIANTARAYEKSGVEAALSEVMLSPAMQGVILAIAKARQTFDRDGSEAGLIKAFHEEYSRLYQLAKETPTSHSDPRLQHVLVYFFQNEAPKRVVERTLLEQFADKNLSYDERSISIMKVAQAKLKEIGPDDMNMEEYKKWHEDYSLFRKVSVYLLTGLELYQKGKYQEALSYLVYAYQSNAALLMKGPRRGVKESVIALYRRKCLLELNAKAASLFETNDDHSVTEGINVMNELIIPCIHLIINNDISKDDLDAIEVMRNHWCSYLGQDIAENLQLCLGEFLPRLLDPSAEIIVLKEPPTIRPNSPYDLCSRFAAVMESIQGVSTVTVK
Kind of assay: Ubiquitin-Rhodamine 110 Assay. The method, then:
Enzyme (His6 USP28, BostonBiochem, #E-570) concentration and incubation times were optimized for the maximal signal to background while maintaining the initial velocity conditions at a fixed substrate concentration. […] 2 μl of 4× enzyme was added to assay plates (pre stamped with compound) and incubated for 2 h at room temperature. […] of 4× substrate was subsequently added to the assay plates and incubated for 2 h at room temperature.

This is an account of results in BindingDB's records for patent US20240425513 (Carmot Therapeutics, 2024).

One may read the IC50 as the midpoint of a concentration-inhibition curve. Read a high IC50 as weaker potency. For `CC(Oc1ccc(-c2nc(Cc3cccc(Cl)c3)no2)cc1)C(=O)N[C@@H]1C[C@@H](C)N(C#N)C1` (stereo partly specified) [US20240425513, Example 11], the IC50 was more than 1 µM.
